Measurements taken from PubChem BioAssay AID1963847 (Molecular Pharmacology Branch, DTP, NCI, 2024).

System: 415267-285-R-J2-PDC complex spheroid viability
Test: Anticancer human tumor 415267-285-R-J2-PDC patient-derived breast carcinoma cell line growth inhibition [POLQ]
Conditions: for IC50: curve of first compound; for viability, T/C: stronger effect = lower value
Method in brief: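 Growth inhibition in 3D: complex spheroids (tumor PDC, HUVEC, MSC) treated with POLQ inhibitor combinations; where Cmax unknown, highest tested concentration 10 microM, except SN-38 at 1 microM.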

[1] = second compound 0.0316 µM, first compound 0.0316 µM
[2] = second compound 0.0316 µM, first compound 0.1 µM
[3] = second compound 0.0316 µM, first compound 0.316 µM
[4] = second compound 0.0316 µM, first compound 1 µM
[5] = second compound 0.0316 µM, first compound 3.16 µM
[6] = second compound 0.0316 µM, first compound 10 µM
[7] = second compound 0.1 µM, first compound 0.0316 µM
[8] = second compound 0.1 µM, first compound 0.1 µM
[9] = second compound 0.1 µM, first compound 0.316 µM
[10] = second compound 0.1 µM, first compound 1 µM
[11] = second compound 0.1 µM, first compound 3.16 µM
[12] = second compound 0.1 µM, first compound 10 µM
[13] = second compound 0.316 µM, first compound 0.0316 µM
[14] = second compound 0.316 µM, first compound 0.1 µM
[15] = second compound 0.316 µM, first compound 0.316 µM
[16] = second compound 0.316 µM, first compound 1 µM
[17] = second compound 0.316 µM, first compound 3.16 µM
[18] = second compound 0.316 µM, first compound 10 µM
[19] = second compound 1 µM, first compound 0.0316 µM
[20] = second compound 1 µM, first compound 0.1 µM
[21] = second compound 1 µM, first compound 0.316 µM
[22] = second compound 1 µM, first compound 1 µM
[23] = second compound 1 µM, first compound 3.16 µM
[24] = second compound 1 µM, first compound 10 µM
[25] = second compound 3.16 µM, first compound 0.0316 µM
[26] = second compound 3.16 µM, first compound 0.1 µM
[27] = second compound 3.16 µM, first compound 0.316 µM
[28] = second compound 3.16 µM, first compound 1 µM
[29] = second compound 3.16 µM, first compound 3.16 µM
[30] = second compound 3.16 µM, first compound 10 µM
[31] = second compound 10 µM, first compound 0.0316 µM
[32] = second compound 10 µM, first compound 0.1 µM
[33] = second compound 10 µM, first compound 0.316 µM
[34] = second compound 10 µM, first compound 1 µM
[35] = second compound 10 µM, first compound 3.16 µM
[36] = second compound 10 µM, first compound 10 µM
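Note: spheroids exposed to compounds for one week before readout.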
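Throughout, for viability, T/C: luminescence used as stand-in measure of viable cells; 100% = DMSO vehicle control viability.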

Compound: CCCS(=O)(=O)Nc1ccc(F)c(C(=O)c2c[nH]c3ncc(-c4ccc(Cl)cc4)cc23)c1F + Nc1ccc(C#CCN(C(=O)Cc2ncc(C(F)(F)F)cc2C(F)(F)F)c2ccc(F)cc2)nn1
- IC50 (second compound 0.0316 µM): > 10 µM
- IC50 (second compound 0.1 µM): > 10 µM
- IC50 (second compound 0.316 µM): > 10 µM
- IC50 (second compound 1 µM): > 10 µM
- IC50 (second compound 3.16 µM): > 10 µM
- IC50 (second compound 10 µM): > 10 µM
- viability, T/C [1]: 92%
- viability, T/C [2]: 111%
- viability, T/C [3]: 102%
- viability, T/C [4]: 90.8%
- viability, T/C [5]: 90.6%
- viability, T/C [6]: 89.6%
- viability, T/C [7]: 117%
- viability, T/C [8]: 105%
- viability, T/C [9]: 91.1%
- viability, T/C [10]: 107%
- viability, T/C [11]: 109%
- viability, T/C [12]: 90.3%
- viability, T/C [13]: 114%
- viability, T/C [14]: 109%
- viability, T/C [15]: 108%
- viability, T/C [16]: 95.2%
- viability, T/C [17]: 96.2%
- viability, T/C [18]: 89.2%
- viability, T/C [19]: 110%
- viability, T/C [20]: 107%
- viability, T/C [21]: 105%
- viability, T/C [22]: 100%
- viability, T/C [23]: 105%
- viability, T/C [24]: 82.3%
- viability, T/C [25]: 107%
- viability, T/C [26]: 112%
- viability, T/C [27]: 107%
- viability, T/C [28]: 104%
- viability, T/C [29]: 94.2%
- viability, T/C [30]: 92.9%
- viability, T/C [31]: 95.5%
- viability, T/C [32]: 105%
- viability, T/C [33]: 104%
- viability, T/C [34]: 98.4%
- viability, T/C [35]: 104%
- viability, T/C [36]: 90.8%

Compound: CCCS(=O)(=O)Nc1ccc(F)c(C(=O)c2c[nH]c3ncc(-c4ccc(Cl)cc4)cc23)c1F + Cc1cccc(N(C)C(=O)C2C(O)CCN2c2nc(C)cc(C(F)(F)F)c2C#N)c1
- IC50 (second compound 0.0316 µM): > 10 µM
- IC50 (second compound 0.1 µM): > 10 µM
- IC50 (second compound 0.316 µM): > 10 µM
- IC50 (second compound 1 µM): > 10 µM
- IC50 (second compound 3.16 µM): > 10 µM
- IC50 (second compound 10 µM): > 10 µM
- viability, T/C [1]: 98.8%
- viability, T/C [2]: 111%
- viability, T/C [3]: 99%
- viability, T/C [4]: 93.8%
- viability, T/C [5]: 86.3%
- viability, T/C [6]: 91.2%
- viability, T/C [7]: 104%
- viability, T/C [8]: 93.5%
- viability, T/C [9]: 93.4%
- viability, T/C [10]: 102%
- viability, T/C [11]: 96.5%
- viability, T/C [12]: 88.9%
- viability, T/C [13]: 105%
- viability, T/C [14]: 99.4%
- viability, T/C [15]: 90.3%
- viability, T/C [16]: 102%
- viability, T/C [17]: 97.7%
- viability, T/C [18]: 86.7%
- viability, T/C [19]: 105%
- viability, T/C [20]: 101%
- viability, T/C [21]: 102%
- viability, T/C [22]: 99.9%
- viability, T/C [23]: 107%
- viability, T/C [24]: 79.3%
- viability, T/C [25]: 111%
- viability, T/C [26]: 103%
- viability, T/C [27]: 104%
- viability, T/C [28]: 104%
- viability, T/C [29]: 93.7%
- viability, T/C [30]: 91.1%
- viability, T/C [31]: 96.4%
- viability, T/C [32]: 96%
- viability, T/C [33]: 109%
- viability, T/C [34]: 111%
- viability, T/C [35]: 94%
- viability, T/C [36]: 73.8%

Compound: C=CC(=O)N1CCN(c2nc(=O)n(-c3c(C)ccnc3C(C)C)c3nc(-c4c(O)cccc4F)c(F)cc23)C(C)C1 (stereo not drawn) + Nc1ccc(C#CCN(C(=O)Cc2ncc(C(F)(F)F)cc2C(F)(F)F)c2ccc(F)cc2)nn1
- IC50 (second compound 0.0316 µM): > 10 µM
- IC50 (second compound 0.1 µM): > 10 µM
- IC50 (second compound 0.316 µM): > 10 µM
- IC50 (second compound 1 µM): > 10 µM
- IC50 (second compound 3.16 µM): > 10 µM
- IC50 (second compound 10 µM): > 10 µM
- viability, T/C [1]: 99.7%
- viability, T/C [2]: 110%
- viability, T/C [3]: 121%
- viability, T/C [4]: 114%
- viability, T/C [5]: 104%
- viability, T/C [6]: 99.6%
- viability, T/C [7]: 98.5%
- viability, T/C [8]: 103%
- viability, T/C [9]: 94.7%
- viability, T/C [10]: 100%
- viability, T/C [11]: 103%
- viability, T/C [12]: 105%
- viability, T/C [13]: 97.5%
- viability, T/C [14]: 114%
- viability, T/C [15]: 91.8%
- viability, T/C [16]: 93%
- viability, T/C [17]: 98.2%
- viability, T/C [18]: 92.5%
- viability, T/C [19]: 111%
- viability, T/C [20]: 91.7%
- viability, T/C [21]: 113%
- viability, T/C [22]: 106%
- viability, T/C [23]: 96%
- viability, T/C [24]: 105%
- viability, T/C [25]: 99.1%
- viability, T/C [26]: 106%
- viability, T/C [27]: 107%
- viability, T/C [28]: 102%
- viability, T/C [29]: 99.1%
- viability, T/C [30]: 104%
- viability, T/C [31]: 94.5%
- viability, T/C [32]: 112%
- viability, T/C [33]: 106%
- viability, T/C [34]: 107%
- viability, T/C [35]: 104%
- viability, T/C [36]: 102%

Compound: CC1COCCN1c1cc(C2(S(C)(=N)=O)CC2)nc(-c2ccnc3[nH]ccc23)n1 (stereo not drawn) + COC1C(OC(N)=O)C(O)C(Oc2ccc3c(O)c(NC(=O)c4ccc(O)c(CC=C(C)C)c4)c(=O)oc3c2C)OC1(C)C
- IC50 (second compound 0.0316 µM): 0.463 µM
- IC50 (second compound 0.1 µM): 0.432 µM
- IC50 (second compound 0.316 µM): 0.504 µM
- IC50 (second compound 1 µM): 0.512 µM
- IC50 (second compound 3.16 µM): 0.591 µM
- IC50 (second compound 10 µM): 0.513 µM
- viability, T/C [1]: 105%
- viability, T/C [2]: 108%
- viability, T/C [3]: 67.2%
- viability, T/C [4]: 14.9%
- viability, T/C [5]: 6.29%
- viability, T/C [6]: 4.89%
- viability, T/C [7]: 105%
- viability, T/C [8]: 96.6%
- viability, T/C [9]: 65.3%
- viability, T/C [10]: 9.55%
- viability, T/C [11]: 5.9%
- viability, T/C [12]: 4.32%
- viability, T/C [13]: 95.4%
- viability, T/C [14]: 96.3%
- viability, T/C [15]: 76.2%
- viability, T/C [16]: 11.6%
- viability, T/C [17]: 7.22%
- viability, T/C [18]: 5.59%
- viability, T/C [19]: 93.2%
- viability, T/C [20]: 97.7%
- viability, T/C [21]: 76.2%
- viability, T/C [22]: 13.5%
- viability, T/C [23]: 10%
- viability, T/C [24]: 4.78%
- viability, T/C [25]: 95%
- viability, T/C [26]: 105%
- viability, T/C [27]: 89.8%
- viability, T/C [28]: 16.4%
- viability, T/C [29]: 6.8%
- viability, T/C [30]: 4.43%
- viability, T/C [31]: 97.5%
- viability, T/C [32]: 97.9%
- viability, T/C [33]: 76.5%
- viability, T/C [34]: 13.5%
- viability, T/C [35]: 6.73%
- viability, T/C [36]: 5.32%
